Data taken from ChEMBL document CHEMBL6114939, “Identification of Dual Inhibitors Targeting Main Protease (Mpro) and Cathepsin L as Potential Anti-SARS-CoV-2 Agents” (ACS Med Chem Lett, 2024).

Experiments:
Procathepsin L [1] = molecular target: T1, Procathepsin L (Homo sapiens, UniProt P07711); experiment: Binding affinity to human Cathepsin L assessed as inhibition constant using Cbz-FR-AMC as substrate preincubated for 20 mins at room temperature followed by substrate addition measured after 10 mins by FRET assay
Target sequence in this assay (P07711 whole entry, the tested form may be a part): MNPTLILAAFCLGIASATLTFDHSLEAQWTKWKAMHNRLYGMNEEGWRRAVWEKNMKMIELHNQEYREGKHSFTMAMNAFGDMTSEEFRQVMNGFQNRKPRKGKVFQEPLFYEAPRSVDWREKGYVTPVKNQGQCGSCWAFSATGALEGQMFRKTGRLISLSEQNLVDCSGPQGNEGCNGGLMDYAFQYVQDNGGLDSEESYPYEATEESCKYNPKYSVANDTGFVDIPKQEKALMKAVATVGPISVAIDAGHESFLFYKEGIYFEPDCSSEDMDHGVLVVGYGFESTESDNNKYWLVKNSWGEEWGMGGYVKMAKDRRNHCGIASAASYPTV

[2] = Binding affinity to N-terminal sumo/his-6 tagged SARS CoV-2 MPro (3264 to 3569 residues) extracted from Escherichia coli BL21 Gold (DE3) cells assessed as inhibition constant using Dabcyl-KTSAVLQSGFRKMEE-dans as substrate incubated for 10 mins by FRET assay; set-up: species or system Severe acute respiratory syndrome coronavirus 2
[3] = test system: Severe acute respiratory syndrome coronavirus 2; experiment: Inhibition of N-terminal sumo/his-6 tagged SARS CoV-2 MPro (3264 to 3569 residues) extracted from Escherichia coli BL21 Gold (DE3) cells assessed as residual activity using Dabcyl-KTSAVLQSGFRKMEE-dans as substrate at 1 uM incubated for 10 mins by FRET assay relative to control
Procathepsin L [4] = molecular target: T1, Procathepsin L; experiment: Inhibition of human Cathepsin L assessed as residual activity using Cbz-FR-AMC as substrate at 1 uM preincubated for 20 mins at room temperature followed by substrate addition and measured after 10 mins by FRET assay; settings: time 30.0 min
Target sequence in this assay (P07711 114-333 limits assumed): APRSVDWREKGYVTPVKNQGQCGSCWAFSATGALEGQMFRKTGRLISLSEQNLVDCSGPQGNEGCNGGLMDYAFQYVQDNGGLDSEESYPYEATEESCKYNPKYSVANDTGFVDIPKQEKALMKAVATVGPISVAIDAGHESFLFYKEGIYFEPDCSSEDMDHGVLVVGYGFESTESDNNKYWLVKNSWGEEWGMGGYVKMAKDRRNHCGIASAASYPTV

Cathepsin S = Cathepsin S (Homo sapiens, UniProt P25774); experiment: Binding affinity to human Cathepsin S assessed as inhibition constant using Cbz-VVR-AMC as substrate preincubated for 20 mins at room temperature followed by substrate addition and measured after 10 mins by FRET assay
Huh-7 = experiment: Cytotoxicity against human Huh-7 cells overexpressing human ACE2 incubated for 24 hrs by MTT assay; assay type: functional
Cathepsin B = Cathepsin B (Homo sapiens, UniProt P07858); experiment: Binding affinity to human Cathepsin B assessed as inhibition constant using Cbz-FR-AMC as substrate preincubated for 20 mins at room temperature followed by substrate addition and measured after 10 mins by FRET assay

Sequence of Cathepsin S (P25774 whole entry): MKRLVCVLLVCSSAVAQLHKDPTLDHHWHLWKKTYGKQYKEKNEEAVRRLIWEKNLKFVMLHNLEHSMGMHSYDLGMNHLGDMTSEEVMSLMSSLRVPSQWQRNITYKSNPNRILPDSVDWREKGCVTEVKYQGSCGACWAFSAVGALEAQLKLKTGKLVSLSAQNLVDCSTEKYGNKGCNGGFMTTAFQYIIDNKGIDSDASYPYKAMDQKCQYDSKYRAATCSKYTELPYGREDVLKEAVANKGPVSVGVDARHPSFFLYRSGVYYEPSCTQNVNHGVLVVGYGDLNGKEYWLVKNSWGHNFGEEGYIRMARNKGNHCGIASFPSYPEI

SMILES	Ki (Procathepsin L [1])	Ki [2]	Activity [3]	Activity (Procathepsin L [4])	Ki (Cathepsin S)	CC50 (Huh-7)	Ki (Cathepsin B)
CCOC(=O)/C=C/[C@H](C[C@@H]1CCNC1=O)NC(=O)[C@H](Cc1ccccc1)NC(=O)[C@@H](Cc1ccc(F)cc1)NC(=O)OC(C)(C)C	0.145 µM	1.8 µM	–	–	–	–	–
CC(=O)/C=C/[C@H](C[C@@H]1CCNC1=O)NC(=O)[C@H](CC(C)C)NC(=O)c1cccc(F)c1	–	–	99.5%	10.9%	–	–	–
CCCC[C@H](NC(=O)c1cccc(F)c1)C(=O)N[C@H](/C=C/C(C)=O)C[C@@H]1CCNC1=O	–	–	86%	6.81%	–	–	–
CC(=O)/C=C/[C@H](C[C@@H]1CCNC1=O)NC(=O)[C@H](CC1CC1)NC(=O)c1cccc(F)c1	–	–	92.7%	9.76%	–	–	–
CC(=O)/C=C/[C@H](C[C@@H]1CCNC1=O)NC(=O)[C@H](CC(C)(C)C)NC(=O)c1ccccc1F	–	–	89.4%	33.5%	–	–	–
CC(=O)/C=C/[C@H](C[C@@H]1CCNC1=O)NC(=O)[C@H](CC(C)C)NC(=O)c1ccccc1F	–	–	88.7%	5.3%	–	–	–
CC(=O)/C=C/[C@H](C[C@@H]1CCNC1=O)NC(=O)[C@H](CC(C)(C)C)NC(=O)c1ccc(F)cc1	0.701 µM	5.54 µM	68.8%	45.1%	0.0007 µM	> 100 µM	7.7 µM
CC(=O)/C=C/[C@H](C[C@@H]1CCNC1=O)NC(=O)[C@H](CC1CCCCC1)NC(=O)c1ccccc1F	0.012 µM	1.61 µM	56.3%	3.4%	–	12.6 µM	–
CC(=O)/C=C/[C@H](C[C@@H]1CCNC1=O)NC(=O)[C@H](CC(C)C)NC(=O)c1ccc(F)cc1	0.02 µM	5.58 µM	64.9%	5.8%	0.00623 µM	> 100 µM	10.9 µM
CCC[C@H](NC(=O)c1cccc(F)c1)C(=O)N[C@H](/C=C/C(C)=O)C[C@@H]1CCNC1=O	–	–	101%	8.61%	–	–	–
CC(=O)/C=C/[C@H](C[C@@H]1CCNC1=O)NC(=O)[C@H](CC(C)(C)C)NC(=O)c1cccc(F)c1	–	–	77%	34.7%	–	–	–
CC(=O)/C=C/[C@H](C[C@@H]1CCNC1=O)NC(=O)[C@H](CC1CC1)NC(=O)c1ccccc1F	0.294 µM	2.95 µM	57.9%	23.2%	0.0954 µM	> 100 µM	–
CCCC[C@H](NC(=O)c1ccc(F)cc1)C(=O)N[C@H](/C=C/C(C)=O)C[C@@H]1CCNC1=O	0.141 µM	10.7 µM	58.8%	15.2%	–	> 100 µM	–
CCC[C@H](NC(=O)c1ccccc1F)C(=O)N[C@H](/C=C/C(C)=O)C[C@@H]1CCNC1=O	–	–	101%	12%	–	–	–
CC(=O)/C=C/[C@H](C[C@@H]1CCNC1=O)NC(=O)[C@H](CC1CCCCC1)NC(=O)c1ccc(F)cc1	0.017 µM	3.14 µM	68.2%	5%	–	46.9 µM	–
CCC[C@H](NC(=O)c1ccc(F)cc1)C(=O)N[C@H](/C=C/C(C)=O)C[C@@H]1CCNC1=O	–	–	96.5%	19.1%	–	–	–
CC(=O)/C=C/[C@H](C[C@@H]1CCNC1=O)NC(=O)[C@H](CC1CCCCC1)NC(=O)c1cccc(F)c1	0.004 µM	3.66 µM	64.2%	3.6%	–	22.6 µM	–
CCCC[C@H](NC(=O)c1ccccc1F)C(=O)N[C@H](/C=C/C(C)=O)C[C@@H]1CCNC1=O	–	–	98.7%	8.66%	–	–	–
CC(=O)/C=C/[C@H](C[C@@H]1CCNC1=O)NC(=O)[C@H](CC1CC1)NC(=O)c1ccc(F)cc1	–	–	83.7%	26.8%	–	–	–
